Earlier results on one substance are cited in patent US4256737A, “Long acting depot injectable formulations for LH-RH analogues” (Syntex (U.S.A.) Inc., priority 1979, dated 1981).

The conditions of this series: background statement.

Regarding “(pyro)Glu-His-Trp-Ser-Tyr-Gly-Leu-Arg-Pro-Gly-NH2 [natural LH-RH]”, the biological halflife was 1-2 hours.
